Results published in US10717716B2, “1,3,4-oxadiazole derivative compounds as histone deacetylase 6 inhibitor, and the pharmaceutical composition comprising the same” (Chong Kun Dang Pharmaceutical Corp., priority 2015, dated 2020).

Target: T1, human recombinant HDAC6 (Homo sapiens, UniProt Q9UBN7)
T1 construct: purchased Calbiochem 382180
T1 sequence (Q9UBN7 1-1215): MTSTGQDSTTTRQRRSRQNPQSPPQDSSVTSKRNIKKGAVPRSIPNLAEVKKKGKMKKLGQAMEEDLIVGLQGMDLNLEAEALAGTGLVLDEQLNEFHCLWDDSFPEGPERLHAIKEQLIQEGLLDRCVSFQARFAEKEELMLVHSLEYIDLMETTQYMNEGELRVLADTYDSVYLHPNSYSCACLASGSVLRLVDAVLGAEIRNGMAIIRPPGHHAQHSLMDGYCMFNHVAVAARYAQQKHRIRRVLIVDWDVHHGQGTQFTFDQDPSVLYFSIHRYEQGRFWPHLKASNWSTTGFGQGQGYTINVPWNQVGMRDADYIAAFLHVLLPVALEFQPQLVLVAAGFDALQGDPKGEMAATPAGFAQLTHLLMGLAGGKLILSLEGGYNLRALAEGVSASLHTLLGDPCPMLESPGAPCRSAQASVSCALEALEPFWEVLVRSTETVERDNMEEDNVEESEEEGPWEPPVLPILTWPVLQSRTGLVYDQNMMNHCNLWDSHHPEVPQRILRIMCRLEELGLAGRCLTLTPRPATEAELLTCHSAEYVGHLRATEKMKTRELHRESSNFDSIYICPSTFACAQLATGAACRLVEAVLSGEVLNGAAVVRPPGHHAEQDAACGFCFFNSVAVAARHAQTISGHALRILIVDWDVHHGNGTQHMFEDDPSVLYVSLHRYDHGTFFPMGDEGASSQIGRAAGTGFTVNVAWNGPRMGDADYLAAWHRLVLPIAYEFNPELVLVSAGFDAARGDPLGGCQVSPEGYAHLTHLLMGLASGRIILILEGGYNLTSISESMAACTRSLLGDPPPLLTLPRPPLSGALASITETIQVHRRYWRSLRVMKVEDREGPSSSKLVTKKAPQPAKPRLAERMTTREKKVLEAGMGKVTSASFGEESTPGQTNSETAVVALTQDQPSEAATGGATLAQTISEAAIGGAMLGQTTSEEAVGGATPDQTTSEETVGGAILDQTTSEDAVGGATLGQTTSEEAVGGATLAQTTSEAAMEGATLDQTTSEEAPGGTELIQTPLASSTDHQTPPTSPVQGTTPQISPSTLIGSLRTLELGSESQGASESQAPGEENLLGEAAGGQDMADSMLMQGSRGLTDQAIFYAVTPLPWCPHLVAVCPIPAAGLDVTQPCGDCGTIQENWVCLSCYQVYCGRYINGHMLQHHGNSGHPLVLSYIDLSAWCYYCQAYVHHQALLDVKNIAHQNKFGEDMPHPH
Assay: HDAC6 enzyme activity inhibition assay (HDAC Fluorimetric Drug Discovery Kit)
Format: biochemical
Details: for HDAC6 selectivity (fold): HDAC6 over HDAC1; for IC50: human recombinant HDAC6, same protocol as HDAC1, read-out: HDAC6
Method in brief: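 Fluorimetric deacetylase assay: 5-fold serial compound dilutions, 0.3 μg recombinant human enzyme (HDAC1 or HDAC6, same protocol), 10 μM Fluor de Lys-SIRT1 substrate, 60 min at 30 °C. Signal developed 30 min, measured at 360/460 nm; IC50 values derived.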

Row | Compound | HDAC6 selectivity (fold) | IC50
1 | O=C(N1CCOCC1)N(Cc1ccc(-c2nnc(C(F)F)o2)cc1F)c1ccc(Cl)cc1 [Compound 21849, N-(4-chlorophenyl)-N-(4-(5-(difluoromethyl)-1,3,4-oxadiazol-2-yl)-2-fluorobenzyl)morpholine-4-carboxamide] | 95 fold | 106 nM
2 | O=C(N1CCOCC1)N(Cc1ccc(-c2nnc(C(F)F)o2)cn1)c1cccc(Cl)c1 [Compound 21851, N-(3-chlorophenyl)-N-((5-(5-(difluoromethyl)-1,3,4-oxadiazol-2-yl)pyridin-2-yl)methyl) morpholine-4-carboxamide] | 407 fold | 25 nM
3 | Cc1ccc(N(Cc2ccc(-c3nnc(C(F)F)o3)cn2)C(=O)N2CCOCC2)c(F)c1 [Compound 21855, N-((5-(5-(difluoromethyl)-1,3,4-oxadiazol-2-yl)pyridin-2-yl)methyl)-N-(2-fluoro-4-methylphenyl)morpholine-4-carboxamide] | 248 fold | 40 nM
4 | Cc1ccc(N(Cc2ccc(-c3nnc(C(F)F)o3)cc2F)C(=O)N2CCOCC2)c(F)c1 [Compound 21856, N-(4-(5-(difluoromethyl)-1,3,4-oxadiazol-2-yl)-2-fluorobenzyl)-N-(2-fluoro-4-methylphenyl)morpholine-4-carboxamide] | 105 fold | 95 nM
5 | CCN1CCN(C(=O)N(Cc2ccc(-c3nnc(C(F)F)o3)cc2F)c2ccc(Cl)cc2)CC1 [Compound 21881, N-(4-Chlorophenyl)-N-(4-(5-(difluoromethyl)-1,3,4-oxadiazol-2-yl)-2-fluorobenzyl)-4-ethylpiperazine-1-carboxamide] | 204 fold | 49 nM
6 | CCN1CCN(C(=O)N(Cc2ccc(-c3nnc(C(F)F)o3)cn2)c2ccc(Cl)cc2)CC1 [Compound 21882, N-(4-Chlorophenyl)-N-((5-(5-(difluoromethyl)-1,3,4-oxadiazol-2-yl)pyridin-2-yl)methyl)-4-ethylpiperazine-1-carboxamide] | 251 fold | 40 nM
7 | CCN1CCN(C(=O)N(Cc2ccc(-c3nnc(C(F)F)o3)cc2)c2cccc(F)c2)CC1 [Compound 21883, N-(4-(5-(Difluoromethyl)-1,3,4-oxadiazol-2-yl)benzyl)-4-ethyl-N-(3-fluorophenyl)piperazine-1-carboxamide] | 268 fold | 37 nM
8 | CCN1CCN(C(=O)N(Cc2ccc(-c3nnc(C(F)F)o3)cc2F)c2cccc(F)c2)CC1 [Compound 21884, N-(4-(5-(Difluoromethyl)-1,3,4-oxadiazol-2-yl)-2-fluorobenzyl)-4-ethyl-N-(3-fluorophenyl)piperazine-1-carboxamide] | 303 fold | 33 nM
9 | CCN1CCN(C(=O)N(Cc2ccc(-c3nnc(C(F)F)o3)cn2)c2cccc(F)c2)CC1 [Compound 21885, N-((5-(5-(Difluoromethyl)-1,3,4-oxadiazol-2-yl)pyridin-2-yl)methyl)-4-ethyl-N-(3-fluorophenyl)piperazine-1-carboxamide] | 555 fold | 18 nM
10 | CCN1CCN(C(=O)N(Cc2ccc(-c3nnc(C(F)F)o3)cc2)c2ccc(F)cc2)CC1 [Compound 21886, N-(4-(5-(Difluoromethyl)-1,3,4-oxadiazol-2-yl)benzyl)-4-ethyl-N-(4-fluorophenyl)piperazine-1-carboxamide] | 218 fold | 46 nM
11 | CCN1CCN(C(=O)N(Cc2ccc(-c3nnc(C(F)F)o3)cc2F)c2ccc(F)cc2)CC1 [Compound 21887, N-(4-(5-(Difluoromethyl)-1,3,4-oxadiazol-2-yl)-2-fluorobenzyl)-4-ethyl-N-(4-fluorophenyl)piperazine-1-carboxamide] | 218 fold | 46 nM
12 | CCN1CCN(C(=O)N(Cc2ccc(-c3nnc(C(F)F)o3)cn2)c2ccc(F)cc2)CC1 [Compound 21888, N-((5-(5-(Difluoromethyl)-1,3,4-oxadiazol-2-yl)pyridin-2-yl)methyl)-4-ethyl-N-(4-fluorophenyl)piperazine-1-carboxamide] | 388 fold | 26 nM
13 | CCN1CCN(C(=O)N(Cc2ccc(-c3nnc(C(F)F)o3)cc2)c2cccc(OC)c2)CC1 [Compound 21889, N-(4-(5-(Difluoromethyl)-1,3,4-oxadiazol-2-yl)benzyl)-4-ethyl-N-(3-methoxyphenyl)piperazine-1-carboxamide] | 103 fold | 98 nM
14 | CCN1CCN(C(=O)N(Cc2ccc(-c3nnc(C(F)F)o3)cc2F)c2cccc(OC)c2)CC1 [Compound 21890, N-(4-(5-(Difluoromethyl)-1,3,4-oxadiazol-2-yl)-2-fluorobenzyl)-4-ethyl-N-(3-methoxyphenyl)piperazine-1-carboxamide] | 185 fold | 54 nM
15 | CCN1CCN(C(=O)N(Cc2ccc(-c3nnc(C(F)F)o3)cn2)c2cccc(OC)c2)CC1 [Compound 21891, N-((5-(5-(Difluoromethyl)-1,3,4-oxadiazol-2-yl)pyridin-2-yl)methyl)-4-ethyl-N-(3-methoxyphenyl)piperazine-1-carboxamide] | 174 fold | 57 nM
16 | CC(C)(C)CN1CCN(Cc2ccc(N(Cc3ccc(-c4nnc(C(F)F)o4)cc3F)C(=O)N3CCS(=O)(=O)CC3)cc2)CC1 [Compound 21895, N-(4-(5-(difluoromethyl)-1,3,4-oxadiazol-2-yl)-2-fluorobenzyl)-N-(4-((4-neopentylpiperazin-1-yl)methyl)phenyl)thiomorpholine-4-carboxamide 1,1-dioxide] | 42 fold | 236 nM
17 | O=C(N1CCS(=O)(=O)CC1)N(Cc1ccc(-c2nnc(C(F)F)o2)cc1F)c1ccc(CN2CCN(Cc3ccccc3)CC2)cc1 [Compound 21900, N-(4-((4-benzylpiperazin-1-yl)methyl)phenyl)-N-(4-(5-(difluoromethyl)-1,3,4-oxadiazol-2-yl)-2-fluorobenzyl)thiomorpholine-4-carboxamide 1,1-dioxide] | 53 fold | 190 nM
18 | CC(C)(F)CN1CCN(Cc2ccc(N(Cc3ccc(-c4nnc(C(F)F)o4)cc3F)C(=O)N3CCS(=O)(=O)CC3)cc2)CC1 [Compound 21901, N-(4-(5-(difluoromethyl)-1,3,4-oxadiazol-2-yl)-2-fluorobenzyl)-N-(4-((4-(2-fluoro-2-methylpropyl)piperazin-1-yl)methyl)phenyl)thiomorpholine-4-carboxamide 1,1-dioxide] | 29 fold | 349 nM
19 | O=C(N1CCS(=O)(=O)CC1)N(Cc1ccc(-c2nnc(C(F)F)o2)cc1F)c1ccc(CN2CCN(CC(F)(F)F)CC2)cc1 [Compound 21902, N-(4-(5-(difluoromethyl)-1,3,4-oxadiazol-2-yl)-2-fluorobenzyl)-N-(4-((4-(2,2,2-trifluoroethyl)piperazin-1-yl)methyl)phenyl)thiomorpholine-4-carboxamide 1,1-dioxide] | 25 fold | 398 nM
20 | O=C(N1CCOCC1)N(Cc1ccc(-c2nnc(C(F)F)o2)cc1F)C12CC3CC(CC(C3)C1)C2 [Compound 21910, N-((3s,5s,7s)-adamantan-1-yl)-N-(4-(5-(difluoromethyl)-1,3,4-oxadiazol-2-yl)-2-fluorobenzyl)morpholine-4-carboxamide] | 21 fold | 470 nM
21 | O=C(N1CCS(=O)(=O)CC1)N(Cc1ccc(-c2nnc(C(F)F)o2)cc1F)c1ccc(CN2CC(F)(F)C2)cc1 [Compound 21914, N-(4-((3,3-difluoroazetidin-1-yl)methyl)phenyl)-N-(4-(5-(difluoromethyl)-1,3,4-oxadiazol-2-yl)-2-fluorobenzyl)thiomorpholine-4-carboxamide 1,1-dioxide] | 63 fold | 158 nM
